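These data come from cells grown in 96-well plates and exposed to compound for 48 hours at five concentrations. At the TGI there is no net growth.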
Legend:
Test in all cases: NCI tumour cell line growth inhibition, 48 h
786-0 renal = system: 786-0 renal
A498 renal = system: A498 renal
A549 NSCLC = system: A549 NSCLC
ACHN renal = system: ACHN renal
BT-549 breast = system: BT-549 breast
CAKI-1 renal = system: CAKI-1 renal
CCRF-CEM leukemia = system: CCRF-CEM leukemia
COLO 205 colon = system: COLO 205 colon
DU-145 prostate = system: DU-145 prostate
EKVX NSCLC = system: EKVX NSCLC
HCC-2998 colon = system: HCC-2998 colon
HCT-116 colon = system: HCT-116 colon
HCT-15 colon = system: HCT-15 colon
HL-60(TB) leukemia = system: HL-60(TB) leukemia
HOP-62 NSCLC = system: HOP-62 NSCLC
HOP-92 NSCLC = system: HOP-92 NSCLC
HS 578T breast = system: HS 578T breast
HT29 colon = system: HT29 colon
IGROV1 ovarian = system: IGROV1 ovarian
K-562 leukemia = system: K-562 leukemia
KM12 colon = system: KM12 colon
LOX IMVI melanoma = system: LOX IMVI melanoma
M14 melanoma = system: M14 melanoma
MALME-3M melanoma = system: MALME-3M melanoma
MCF7 breast = system: MCF7 breast
MDA-MB-231 breast = system: MDA-MB-231 breast
MDA-MB-435 = system: MDA-MB-435
MDA-N = system: MDA-N
MOLT-4 leukemia = system: MOLT-4 leukemia
NCI-H226 lung = system: NCI-H226 lung
NCI-H23 lung = system: NCI-H23 lung
NCI-H460 lung = system: NCI-H460 lung
NCI-H522 lung = system: NCI-H522 lung
NCI/ADR-RES ovarian = system: NCI/ADR-RES ovarian
OVCAR-3 ovarian = system: OVCAR-3 ovarian
OVCAR-4 ovarian = system: OVCAR-4 ovarian
OVCAR-5 ovarian = system: OVCAR-5 ovarian
OVCAR-8 ovarian = system: OVCAR-8 ovarian
PC-3 prostate = system: PC-3 prostate
RPMI-8226 leukemia = system: RPMI-8226 leukemia
RXF 393 renal = system: RXF 393 renal
SF-268 CNS = system: SF-268 CNS
SF-295 CNS = system: SF-295 CNS
SF-539 CNS = system: SF-539 CNS
SK-MEL-2 melanoma = system: SK-MEL-2 melanoma
SK-MEL-28 melanoma = system: SK-MEL-28 melanoma
SK-MEL-5 melanoma = system: SK-MEL-5 melanoma
SK-OV-3 ovarian = system: SK-OV-3 ovarian
SN12C renal = system: SN12C renal
SNB-19 CNS = system: SNB-19 CNS
SNB-75 CNS = system: SNB-75 CNS
SR leukemia = system: SR leukemia
SW-620 colon = system: SW-620 colon
T-47D breast = system: T-47D breast
TK-10 renal = system: TK-10 renal
U251 CNS = system: U251 CNS
UACC-257 melanoma = system: UACC-257 melanoma
UACC-62 melanoma = system: UACC-62 melanoma
UO-31 renal = system: UO-31 renal

O=S(=O)(O)SCCNCCCCCC1CCCCC1
TGI (786-0 renal): 28 µM | TGI (A498 renal): 40.6 µM | TGI (A549 NSCLC): 23 µM | TGI (ACHN renal): 30.3 µM | TGI (BT-549 breast): 31.4 µM | TGI (CAKI-1 renal): 35.4 µM | TGI (CCRF-CEM leukemia): > 100 µM | TGI (COLO 205 colon): 30.3 µM | TGI (DU-145 prostate): 12.1 µM | TGI (EKVX NSCLC): 22.9 µM | TGI (HCC-2998 colon): 10.5 µM | TGI (HCT-116 colon): 10.2 µM | TGI (HCT-15 colon): 24.5 µM | TGI (HL-60(TB) leukemia): > 100 µM | TGI (HOP-62 NSCLC): 17.9 µM | TGI (HOP-92 NSCLC): 39.9 µM | TGI (HS 578T breast): 36.2 µM | TGI (HT29 colon): 19.1 µM | TGI (IGROV1 ovarian): 20.7 µM | TGI (K-562 leukemia): > 35.8 µM | TGI (KM12 colon): 7.76 µM | TGI (LOX IMVI melanoma): 4.78 µM | TGI (M14 melanoma): 18.4 µM | TGI (MALME-3M melanoma): 36.2 µM | TGI (MCF7 breast): 7.32 µM | TGI (MDA-MB-231 breast): 30 µM | TGI (MDA-MB-435): 18.5 µM | TGI (MDA-N): 26.1 µM | TGI (MOLT-4 leukemia): > 31 µM | TGI (NCI-H226 lung): 30.6 µM | TGI (NCI-H23 lung): 27.5 µM | TGI (NCI-H460 lung): 9.16 µM | TGI (NCI-H522 lung): 37.3 µM | TGI (NCI/ADR-RES ovarian): 41.3 µM | TGI (OVCAR-3 ovarian): 11.2 µM | TGI (OVCAR-4 ovarian): 32.3 µM | TGI (OVCAR-5 ovarian): 23.8 µM | TGI (OVCAR-8 ovarian): 33.1 µM | TGI (PC-3 prostate): 22.7 µM | TGI (RPMI-8226 leukemia): 42.1 µM | TGI (RXF 393 renal): 38 µM | TGI (SF-268 CNS): 23.5 µM | TGI (SF-295 CNS): 16.4 µM | TGI (SF-539 CNS): 19.6 µM | TGI (SK-MEL-2 melanoma): 8.68 µM | TGI (SK-MEL-28 melanoma): 18.3 µM | TGI (SK-MEL-5 melanoma): 31.9 µM | TGI (SK-OV-3 ovarian): 31.2 µM | TGI (SN12C renal): 11.3 µM | TGI (SNB-19 CNS): 10.8 µM | TGI (SNB-75 CNS): 16.3 µM | TGI (SR leukemia): > 33.3 µM | TGI (SW-620 colon): 21.7 µM | TGI (T-47D breast): 35.7 µM | TGI (TK-10 renal): 20.7 µM | TGI (U251 CNS): 11.7 µM | TGI (UACC-257 melanoma): 19.5 µM | TGI (UACC-62 melanoma): 4.22 µM | TGI (UO-31 renal): 29.8 µM

COc1cc2c3c(cc(Cl)nc3c1OC)C(O)(CC(=O)c1ccccc1)C(=O)N2 (configuration not stated)
TGI (786-0 renal): 22 µM | TGI (A498 renal): 32.3 µM | TGI (A549 NSCLC): 33.1 µM | TGI (ACHN renal): 28.3 µM | TGI (BT-549 breast): 30.4 µM | TGI (CAKI-1 renal): 31.6 µM | TGI (CCRF-CEM leukemia): 12.5 µM | TGI (COLO 205 colon): 52.4 µM | TGI (DU-145 prostate): 30.1 µM | TGI (EKVX NSCLC): 10.4 µM | TGI (HCC-2998 colon): 35.7 µM | TGI (HCT-116 colon): 16.2 µM | TGI (HCT-15 colon): 50.9 µM | TGI (HL-60(TB) leukemia): 3.68 µM | TGI (HOP-62 NSCLC): 36 µM | TGI (HOP-92 NSCLC): 3.66 µM | TGI (HS 578T breast): 73.4 µM | TGI (HT29 colon): 44.7 µM | TGI (IGROV1 ovarian): 27.4 µM | TGI (K-562 leukemia): 16.7 µM | TGI (KM12 colon): 31.3 µM | TGI (LOX IMVI melanoma): 20.6 µM | TGI (M14 melanoma): 30.5 µM | TGI (MALME-3M melanoma): 4.04 µM | TGI (MCF7 breast): 4.02 µM | TGI (MDA-MB-231 breast): 31.2 µM | TGI (MDA-MB-435): 3.53 µM | TGI (MDA-N): 3.65 µM | TGI (NCI-H226 lung): 41.3 µM | TGI (NCI-H23 lung): 36.9 µM | TGI (NCI-H460 lung): 43.1 µM | TGI (NCI-H522 lung): 8.93 µM | TGI (NCI/ADR-RES ovarian): 63.8 µM | TGI (OVCAR-3 ovarian): 30.2 µM | TGI (OVCAR-4 ovarian): 5.49 µM | TGI (OVCAR-5 ovarian): 35.3 µM | TGI (OVCAR-8 ovarian): 32.1 µM | TGI (PC-3 prostate): 29.2 µM | TGI (RPMI-8226 leukemia): > 26.3 µM | TGI (RXF 393 renal): 27.4 µM | TGI (SF-268 CNS): 13.7 µM | TGI (SF-295 CNS): 32.8 µM | TGI (SF-539 CNS): 5.27 µM | TGI (SK-MEL-2 melanoma): 30 µM | TGI (SK-MEL-28 melanoma): 33.5 µM | TGI (SK-MEL-5 melanoma): 32.3 µM | TGI (SK-OV-3 ovarian): 32.2 µM | TGI (SN12C renal): 19.3 µM | TGI (SNB-19 CNS): 31.8 µM | TGI (SNB-75 CNS): 28.6 µM | TGI (SR leukemia): > 29 µM | TGI (SW-620 colon): > 44.7 µM | TGI (T-47D breast): > 100 µM | TGI (TK-10 renal): 32.1 µM | TGI (U251 CNS): 32.7 µM | TGI (UACC-257 melanoma): 21.4 µM | TGI (UACC-62 melanoma): 15.9 µM | TGI (UO-31 renal): 26.2 µM

From PubChem BioAssay (NCI)
